In ChEMBL document CHEMBL1201862, “PubChem BioAssay data set” (2004):
Counter-ions that a name gives are not always drawn. Calls of active or inactive are those of the source.

Legend:
[1] = target: T1, High affinity choline transporter 1 (Homo sapiens, UniProt Q9GZV3); assay: human choline transporter blockers, potency – cell-based, 5-point CRC, membrane potential dye, dose response (AID 504840); assay type: functional
T1 sequence (Q9GZV3 whole entry): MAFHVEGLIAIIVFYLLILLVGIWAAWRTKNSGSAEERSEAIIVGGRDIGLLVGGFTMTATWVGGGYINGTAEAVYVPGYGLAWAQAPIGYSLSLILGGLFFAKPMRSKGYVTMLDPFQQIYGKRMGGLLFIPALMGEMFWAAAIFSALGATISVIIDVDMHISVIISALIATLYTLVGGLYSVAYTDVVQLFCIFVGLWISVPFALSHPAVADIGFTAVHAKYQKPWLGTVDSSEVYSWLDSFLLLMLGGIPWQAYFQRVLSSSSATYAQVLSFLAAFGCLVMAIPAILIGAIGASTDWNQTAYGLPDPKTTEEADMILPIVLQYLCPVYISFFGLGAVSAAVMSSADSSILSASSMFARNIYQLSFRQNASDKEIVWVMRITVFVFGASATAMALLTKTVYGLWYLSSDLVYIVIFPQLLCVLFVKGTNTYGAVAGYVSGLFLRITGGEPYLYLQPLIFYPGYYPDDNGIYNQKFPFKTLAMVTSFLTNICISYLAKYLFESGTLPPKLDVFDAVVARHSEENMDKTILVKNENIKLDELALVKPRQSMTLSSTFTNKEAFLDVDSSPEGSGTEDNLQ

[2] = target: T1, High affinity choline transporter 1; assay: human choline transporter blockers, potency – cell-based, 10-point CRC, membrane potential dye, dose response (AID 588401); assay type: functional;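 note: membrane potential dye fluorescence of choline-evoked depolarization via CHT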
[3] = test system: CHO-K1; assay: (§1) Counterscreen for antagonists of the orexin 1 receptor (OX1R; HCRTR1): Homogeneous time resolved fluorescence (HTRF)-based cell-based dose response assay to identify antagonists of the parental CHO-K1 cell line. [Related pubchem assays (depositor defined):AID434989, AID435008, AID463079, AID485270, AID492963, AID492964, AID492965, AID493232, AID504699, AID504701]; assay type: functional; settings: Cricetulus griseus
[4] = target: T2, Orexin receptor type 2 (Homo sapiens, UniProt O43614); assay: Counterscreen assay for antagonists of the orexin 1 receptor (OX1R; HCRTR1): Homogeneous Time Resolved Fluorescence (HTRF)-based cell-based dose response assay for antagonists of the orexin 2 receptor (OX2R; HCRTR2), run by assay provider.; assay type: functional
T2 sequence (O43614 whole entry): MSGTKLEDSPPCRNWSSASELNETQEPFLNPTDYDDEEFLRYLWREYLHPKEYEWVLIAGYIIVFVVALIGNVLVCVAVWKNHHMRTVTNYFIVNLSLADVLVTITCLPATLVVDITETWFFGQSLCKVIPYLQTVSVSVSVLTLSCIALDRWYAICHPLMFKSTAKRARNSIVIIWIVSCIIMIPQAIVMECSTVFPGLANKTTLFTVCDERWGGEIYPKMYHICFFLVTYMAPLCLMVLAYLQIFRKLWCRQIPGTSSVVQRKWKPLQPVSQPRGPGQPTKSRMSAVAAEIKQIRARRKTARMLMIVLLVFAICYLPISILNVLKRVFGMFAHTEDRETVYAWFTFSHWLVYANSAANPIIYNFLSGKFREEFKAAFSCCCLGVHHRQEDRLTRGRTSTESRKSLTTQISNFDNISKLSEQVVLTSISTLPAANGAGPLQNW

[5] = as §1, with “Fluorescence-based” for “Homogeneous time resolved fluorescence (HTRF)-based”, “cell-based high throughput” for “cell-based”, “CHO” for “CHO-K1”; assay type: functional
[6] = target: T3, Orexin/Hypocretin receptor type 1 (Homo sapiens, UniProt O43613); assay: Homogeneous Time Resolved Fluorescence (HTRF)-based cell-based high throughput dose response assay for antagonists of the orexin 1 receptor (OX1R; HCRTR1). [Related pubchem assays (depositor defined):AID434989, AID435008, AID463079, AID485270, AID492963, AID492964, AID492965, AID493232, AID504717, AID504718]; assay type: functional
T3 sequence (O43613 whole entry): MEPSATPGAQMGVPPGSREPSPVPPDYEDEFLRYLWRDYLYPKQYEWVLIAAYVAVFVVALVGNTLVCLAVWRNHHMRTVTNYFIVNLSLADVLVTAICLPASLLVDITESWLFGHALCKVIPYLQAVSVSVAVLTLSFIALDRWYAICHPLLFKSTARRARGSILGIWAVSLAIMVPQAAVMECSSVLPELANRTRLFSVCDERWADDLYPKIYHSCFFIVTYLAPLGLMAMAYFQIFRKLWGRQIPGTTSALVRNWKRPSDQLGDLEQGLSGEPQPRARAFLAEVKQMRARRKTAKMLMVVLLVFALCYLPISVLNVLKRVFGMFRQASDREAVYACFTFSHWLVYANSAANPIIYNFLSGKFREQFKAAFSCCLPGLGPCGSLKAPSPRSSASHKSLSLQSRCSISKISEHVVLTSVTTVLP

[7] = target: T2, Orexin receptor type 2; assay: Counterscreen assay for antagonists of the orexin 1 receptor (OX1R; HCRTR1): Fluorescence-based cell-based dose response assay for antagonists of the orexin 2 receptor (OX2R; HCRTR2), run by assay provider.; assay type: functional
[8] = target: T3, Orexin/Hypocretin receptor type 1; assay: Fluorescence-based cell-based high throughput dose response assay for antagonists of the orexin 1 receptor (OX1R; HCRTR1). [Related pubchem assays (depositor defined):AID434989, AID435008, AID463079, AID485270, AID492963, AID492964, AID492965, AID493232, AID504717, AID504718]; assay type: functional
[9] = bead-based luminescence quenchers, dual-tagged ARNT – biochemical, AlphaScreen, cherry-pick, artefact control for ARNT-TACC3 interaction inhibitor project, dose response (AID 651705); assay type: functional;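 note: AlphaScreen bead proximity signal that flags compounds interfering with the detection technology; potency reflects signal decrease which marks the compound as an assay artifact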
[10] = target: Beta Lactamase (Pseudomonas aeruginosa, UniProt Q932Y6); assay: BLA reporter interference, concentration series – BLA reporter cells, FRET fluorescence, artefact control for TLR9-MyD88 binding inhibitor project, dose response (AID 588341); assay type: cell-based;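 note: cell based assay in CHO-K1 cells stably expressing beta-lactamase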
Sequence of Beta Lactamase (Q932Y6 whole entry): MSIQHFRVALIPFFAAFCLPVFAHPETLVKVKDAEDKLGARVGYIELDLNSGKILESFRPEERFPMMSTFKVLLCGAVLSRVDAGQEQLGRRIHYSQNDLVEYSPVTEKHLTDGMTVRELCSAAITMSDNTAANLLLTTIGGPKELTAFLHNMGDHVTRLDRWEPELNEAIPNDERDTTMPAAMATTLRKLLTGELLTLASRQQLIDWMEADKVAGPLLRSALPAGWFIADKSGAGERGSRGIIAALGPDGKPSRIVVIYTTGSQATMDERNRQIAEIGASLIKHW

[11] = target: ATP-binding cassette sub-family B member 6 (Homo sapiens, UniProt Q9NP58); assay: concentration-dependent ABCB6 porphyrin transport blockade – K562-ABCB6 cells, flow cytometry, cherry pick 1, dose response (AID 623955); assay type: functional; settings: read-out: EC50_MICROM
Sequence of ATP-binding cassette sub-family B member 6 (Q9NP58 whole entry): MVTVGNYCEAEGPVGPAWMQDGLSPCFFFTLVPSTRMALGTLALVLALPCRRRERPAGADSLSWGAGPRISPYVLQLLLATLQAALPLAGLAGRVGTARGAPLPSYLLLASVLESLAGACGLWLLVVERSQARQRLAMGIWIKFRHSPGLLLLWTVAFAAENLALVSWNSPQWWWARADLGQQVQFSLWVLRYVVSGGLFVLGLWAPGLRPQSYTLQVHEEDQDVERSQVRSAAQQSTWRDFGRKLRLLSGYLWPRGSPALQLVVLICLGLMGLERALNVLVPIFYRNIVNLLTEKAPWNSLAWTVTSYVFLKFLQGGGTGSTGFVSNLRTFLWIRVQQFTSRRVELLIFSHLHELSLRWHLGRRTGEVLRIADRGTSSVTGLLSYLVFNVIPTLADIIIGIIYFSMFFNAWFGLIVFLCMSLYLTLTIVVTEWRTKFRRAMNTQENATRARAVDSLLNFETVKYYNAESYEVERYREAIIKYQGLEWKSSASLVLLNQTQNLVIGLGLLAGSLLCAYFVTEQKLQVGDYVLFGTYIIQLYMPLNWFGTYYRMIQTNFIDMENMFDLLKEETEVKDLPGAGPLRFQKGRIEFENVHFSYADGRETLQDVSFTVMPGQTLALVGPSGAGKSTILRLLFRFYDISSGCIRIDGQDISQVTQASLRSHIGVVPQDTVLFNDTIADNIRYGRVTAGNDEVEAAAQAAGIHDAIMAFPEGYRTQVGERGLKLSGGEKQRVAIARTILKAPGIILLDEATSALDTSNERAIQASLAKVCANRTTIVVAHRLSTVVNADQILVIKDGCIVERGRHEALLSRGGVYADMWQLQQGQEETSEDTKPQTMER

[12] = test system: A-375; assay: proliferation inhibition in MITF-low A375 cells – cell-based, cherry-pick samples, set 2, counter-screen for MITF modulator project, dose response (AID 540335); assay type: functional; settings: Homo sapiens
[13] = target: T4, Fatty acid synthase (Homo sapiens, UniProt P49327); assay: inhibition of human FAS-TE enzyme activity – biochemical, kinetic fluorescence intensity, dose response (AID 624326); assay type: functional;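 note: rate of fluorescence rise from hydrolysis of a fluorogenic O-methyl fluorescein ester substrate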
T4 sequence (P49327 whole entry): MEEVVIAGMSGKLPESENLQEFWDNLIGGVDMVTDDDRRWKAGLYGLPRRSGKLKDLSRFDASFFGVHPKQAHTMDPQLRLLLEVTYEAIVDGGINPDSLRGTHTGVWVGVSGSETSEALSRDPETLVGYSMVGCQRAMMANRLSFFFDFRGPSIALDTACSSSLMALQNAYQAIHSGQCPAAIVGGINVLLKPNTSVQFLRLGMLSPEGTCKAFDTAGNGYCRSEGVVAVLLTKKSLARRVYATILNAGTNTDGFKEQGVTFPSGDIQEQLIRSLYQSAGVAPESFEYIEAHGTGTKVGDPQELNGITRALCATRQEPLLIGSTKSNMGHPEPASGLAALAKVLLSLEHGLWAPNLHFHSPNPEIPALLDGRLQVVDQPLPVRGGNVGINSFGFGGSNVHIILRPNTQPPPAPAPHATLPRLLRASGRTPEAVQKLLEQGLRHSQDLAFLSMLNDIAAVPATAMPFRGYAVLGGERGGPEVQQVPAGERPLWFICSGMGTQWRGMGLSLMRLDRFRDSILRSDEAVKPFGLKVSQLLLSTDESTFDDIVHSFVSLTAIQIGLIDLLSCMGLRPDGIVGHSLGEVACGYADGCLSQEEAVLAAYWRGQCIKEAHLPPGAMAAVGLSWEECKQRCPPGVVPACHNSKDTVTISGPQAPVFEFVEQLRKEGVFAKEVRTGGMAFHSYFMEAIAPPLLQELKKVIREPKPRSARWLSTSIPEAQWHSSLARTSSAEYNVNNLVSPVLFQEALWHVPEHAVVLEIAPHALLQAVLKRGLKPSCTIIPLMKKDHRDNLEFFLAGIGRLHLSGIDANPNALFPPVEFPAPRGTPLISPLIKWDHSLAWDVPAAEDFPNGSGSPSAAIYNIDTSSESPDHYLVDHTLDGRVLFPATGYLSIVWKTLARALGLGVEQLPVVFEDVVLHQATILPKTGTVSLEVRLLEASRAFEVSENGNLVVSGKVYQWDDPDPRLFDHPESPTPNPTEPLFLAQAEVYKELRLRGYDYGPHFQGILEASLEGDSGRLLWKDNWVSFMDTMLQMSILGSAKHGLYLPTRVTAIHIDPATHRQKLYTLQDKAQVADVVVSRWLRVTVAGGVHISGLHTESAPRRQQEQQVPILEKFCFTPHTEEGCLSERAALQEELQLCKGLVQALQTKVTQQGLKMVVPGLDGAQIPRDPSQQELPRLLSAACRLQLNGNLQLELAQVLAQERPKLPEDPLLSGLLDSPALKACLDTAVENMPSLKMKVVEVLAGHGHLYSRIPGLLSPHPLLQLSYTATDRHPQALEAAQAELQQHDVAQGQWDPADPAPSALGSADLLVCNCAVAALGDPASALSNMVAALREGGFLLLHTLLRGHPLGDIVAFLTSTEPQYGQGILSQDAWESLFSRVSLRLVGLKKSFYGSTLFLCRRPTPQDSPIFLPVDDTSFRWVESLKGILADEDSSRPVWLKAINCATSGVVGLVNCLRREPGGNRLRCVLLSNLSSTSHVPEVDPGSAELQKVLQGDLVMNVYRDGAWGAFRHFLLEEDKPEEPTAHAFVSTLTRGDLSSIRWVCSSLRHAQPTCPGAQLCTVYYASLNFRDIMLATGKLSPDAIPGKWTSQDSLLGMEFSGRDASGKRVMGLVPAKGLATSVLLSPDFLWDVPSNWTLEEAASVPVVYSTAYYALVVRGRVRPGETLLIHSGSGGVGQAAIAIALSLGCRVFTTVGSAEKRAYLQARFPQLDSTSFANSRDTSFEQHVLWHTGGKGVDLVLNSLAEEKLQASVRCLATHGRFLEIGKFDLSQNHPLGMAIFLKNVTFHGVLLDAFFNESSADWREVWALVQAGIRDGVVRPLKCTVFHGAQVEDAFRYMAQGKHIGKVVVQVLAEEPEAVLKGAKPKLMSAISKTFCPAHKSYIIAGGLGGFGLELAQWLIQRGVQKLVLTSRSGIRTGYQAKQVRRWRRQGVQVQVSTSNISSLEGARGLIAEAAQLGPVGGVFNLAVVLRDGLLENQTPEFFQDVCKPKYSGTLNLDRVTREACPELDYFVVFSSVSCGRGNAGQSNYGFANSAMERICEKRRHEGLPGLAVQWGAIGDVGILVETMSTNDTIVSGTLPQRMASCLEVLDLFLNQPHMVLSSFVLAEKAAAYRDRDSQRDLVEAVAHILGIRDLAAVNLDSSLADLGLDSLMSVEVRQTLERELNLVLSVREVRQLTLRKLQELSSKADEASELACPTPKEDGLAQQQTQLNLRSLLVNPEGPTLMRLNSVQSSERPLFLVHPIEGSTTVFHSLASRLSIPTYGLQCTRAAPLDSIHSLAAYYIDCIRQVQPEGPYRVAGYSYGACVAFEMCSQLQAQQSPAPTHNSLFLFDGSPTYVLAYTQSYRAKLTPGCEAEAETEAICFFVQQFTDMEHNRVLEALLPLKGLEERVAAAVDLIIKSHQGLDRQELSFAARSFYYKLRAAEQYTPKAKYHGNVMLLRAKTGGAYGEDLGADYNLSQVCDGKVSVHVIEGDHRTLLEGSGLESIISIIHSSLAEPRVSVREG

[14] = target: T4, Fatty acid synthase; assay: inhibition of human FAS-TE enzyme activity – biochemical, endpoint fluorescence intensity, uHTS hits, dose response (AID 624327); assay type: functional;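 note: fluorescence from hydrolysis of an O-methyl fluorescein acyl ester substrate by the enzyme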
[15] = target: Type-1 angiotensin II receptor (Homo sapiens, UniProt P30556); assay: antagonism of angiotensin II type 1 receptor – cell-based, uHTS hits, selectivity assay for APJ receptor antagonist project, dose response (AID 463214); assay type: functional;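 note: antagonist potency against angiotensin II stimulated AT1 response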
[16] = test system: CHO; assay: CHO cell viability loss, potency – luminescence, cytotoxicity control for TLR9-MyD88 binding inhibitor project, dose response (AID 588339); assay type: functional, cell-based, hamster; settings: Cricetulus griseus;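 note: CHO cells stably coexpressing TLR9 and MyD88 fusions from primary screen; compound exposure lasted 48 hours before viability readout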
[17] = non-specific 3'UTR reporter inhibition in Clone20-Shn3RL – cell-based, Renilla luciferase, cherry-picked, counter-screen for Shn3 inhibitor project, dose response (AID 624133); assay type: functional
[18] = reduction of Shn3 3'UTR-driven luciferase in osteoblasts – cell-based, Clone20 osteoblasts, firefly luciferase, cherry-picked, dose response (AID 624132); assay type: functional;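 note: firefly luciferase luminescence from reporter carrying the Shn3 3'UTR in osteoblasts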
[19] = target: Paired box protein Pax-8 (Homo sapiens, UniProt Q06710); assay: PAX8 transcriptional activity inhibition in RMG-I – RMG-I cells, luciferase, cherry-pick, dose response (AID 687027); assay type: functional, cell-based;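 note: luciferase reporter driven by Pax8 target thyroperoxidase promoter measured by SteadyGlo luminescence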
Sequence of Paired box protein Pax-8 (Q06710 whole entry): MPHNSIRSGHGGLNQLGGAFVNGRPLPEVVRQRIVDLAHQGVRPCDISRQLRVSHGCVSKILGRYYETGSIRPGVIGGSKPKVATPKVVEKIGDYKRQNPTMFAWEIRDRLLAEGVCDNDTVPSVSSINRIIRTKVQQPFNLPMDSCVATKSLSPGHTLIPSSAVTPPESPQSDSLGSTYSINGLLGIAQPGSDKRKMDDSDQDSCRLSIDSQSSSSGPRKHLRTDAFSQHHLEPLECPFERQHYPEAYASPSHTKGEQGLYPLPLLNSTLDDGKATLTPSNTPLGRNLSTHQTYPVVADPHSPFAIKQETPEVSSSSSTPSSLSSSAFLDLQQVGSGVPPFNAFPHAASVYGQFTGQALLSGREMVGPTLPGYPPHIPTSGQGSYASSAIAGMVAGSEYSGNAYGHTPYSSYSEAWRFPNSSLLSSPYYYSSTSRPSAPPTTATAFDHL

[20] = Luminescence Cell-Based Dose Retest to Confirm Inhibitors of Cancer Stem Cells. [Related pubchem assays (depositor defined):AID2717, AID2721]; assay type: functional; settings: Homo sapiens
[21] = target: T5, Microphthalmia-associated transcription factor (Homo sapiens, UniProt O75030); assay: reducers of TRPM1 reporter luminescence, concentration series – cell-based, SK-MEL-5, cherry-picked, set 3, MITF inhibitor project, dose response (AID 493073); assay type: functional;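 note: SK-MEL-5 melanoma cells with luciferase driven by the MITF target TRPM1 promoter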
T5 sequence (O75030 whole entry): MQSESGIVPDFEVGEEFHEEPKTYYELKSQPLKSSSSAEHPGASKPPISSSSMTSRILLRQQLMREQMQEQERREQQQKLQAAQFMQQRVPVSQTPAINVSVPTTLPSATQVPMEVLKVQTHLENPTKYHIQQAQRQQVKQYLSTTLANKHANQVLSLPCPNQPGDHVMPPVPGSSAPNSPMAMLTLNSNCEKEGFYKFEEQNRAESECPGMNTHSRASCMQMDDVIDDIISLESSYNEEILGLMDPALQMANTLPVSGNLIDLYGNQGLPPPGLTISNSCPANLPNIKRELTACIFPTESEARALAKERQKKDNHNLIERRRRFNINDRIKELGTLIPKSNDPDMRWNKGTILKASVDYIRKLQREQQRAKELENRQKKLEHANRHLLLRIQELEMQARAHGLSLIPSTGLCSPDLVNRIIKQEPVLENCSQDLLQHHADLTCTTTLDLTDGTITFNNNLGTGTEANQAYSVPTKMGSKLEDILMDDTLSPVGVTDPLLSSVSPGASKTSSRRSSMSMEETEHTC

[22] = loss of viability in HepG2 cells – cell-based, CellTiter-Glo, cherry-picked, cytotoxicity control for Shn3 inhibitor project, dose response (AID 624134); assay type: functional
[23] = test system: A-375; assay: MITF: Counter assay: A375 proliferation Measured in Cell-Based System Using Plate Reader - 2084-03_Inhibitor_Dose_DryPowder_Activity. [Related pubchem assays (depositor defined):AID488944]; assay type: functional; settings: Homo sapiens
[24] = target: Heat shock protein HSP 90-alpha (Homo sapiens, UniProt P07900); assay type: functional, organism-based
[25] = target: Beta-galactosidase (Escherichia coli, UniProt Q8VNN2); assay: PubChem AID 485352; assay type: functional
[26] = target: Photoreceptor-specific nuclear receptor (Homo sapiens, UniProt Q9Y5X4); assay type: functional, cell-based;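 note: CHO-S cells with Gal4-NCOR and VP16-NR2E3 two-hybrid luciferase reporter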
[27] = target: Benomyl/methotrexate resistance protein (Candida albicans, UniProt P28873); assay: Candida albicans Mdr1 pump inhibition curves – singleplex, Cherry Pick1 hits, dose response (AID 588608); assay type: functional
[28] = Trypanosoma cruzi growth suppression in host cells – NIH3T3 host cells, beta-gal luminescence, confirmation (AID 2044); assay type: functional, cell-based;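 note: intracellular parasites grown in NIH/3T3 mouse fibroblasts as host cells; luminescent beta-galactosidase reporter signal from transgenic T. cruzi replicating inside host cells; inhibitors lower the luminescence signal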
[29] = NIH3T3 cell viability loss – ATP luminescence, mouse fibroblasts, counter-screen, dose response (AID 2010); assay type: functional, cell-based;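 note: cells exposed to compound for about 90 hours before reading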
[30] = target: T1, High affinity choline transporter 1; assay: human choline transporter potentiators, potency – cell-based, 10-point CRC, membrane potential dye, dose response (AID 602376); assay type: functional
[31] = target: Interleukin-8 (Homo sapiens, UniProt P10145); assay: Dose Response confirmation of uHTS small molecule hits for cystic fibrosis induced NFkb Inhibitors in a PAF-induced IL8 counterscreen.; assay type: functional; settings: read-out: IC50_Mean
Sequence of Interleukin-8 (P10145 whole entry): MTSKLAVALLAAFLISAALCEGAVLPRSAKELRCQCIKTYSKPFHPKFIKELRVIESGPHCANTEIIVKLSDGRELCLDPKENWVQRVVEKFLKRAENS

[32] = target: DNA dC->dU-editing enzyme APOBEC-3G (Homo sapiens, UniProt Q9HC16); assay type: functional;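 note: Dose-response counterscreen measuring inhibition of APOBEC3G DNA deaminase activity, run while confirming APOBEC3A inhibitors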
Sequence of DNA dC->dU-editing enzyme APOBEC-3G (Q9HC16 whole entry): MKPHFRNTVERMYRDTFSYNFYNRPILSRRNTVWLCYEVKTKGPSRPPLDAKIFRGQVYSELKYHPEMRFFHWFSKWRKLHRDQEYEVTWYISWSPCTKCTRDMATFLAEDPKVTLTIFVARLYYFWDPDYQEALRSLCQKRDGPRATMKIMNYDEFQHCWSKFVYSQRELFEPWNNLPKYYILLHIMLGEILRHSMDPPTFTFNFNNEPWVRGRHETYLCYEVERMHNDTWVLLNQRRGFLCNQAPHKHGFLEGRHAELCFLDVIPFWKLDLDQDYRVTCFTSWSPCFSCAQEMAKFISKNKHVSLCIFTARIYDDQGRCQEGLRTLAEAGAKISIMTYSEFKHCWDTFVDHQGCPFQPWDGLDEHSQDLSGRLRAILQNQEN

[33] = target: DNA dC->dU-editing enzyme APOBEC-3A (Homo sapiens, UniProt P31941); assay: Dose Response confirmation of small molecule APOBEC3A DNA Deaminase Inhibitors via a fluorescence-based single-stranded DNA deaminase assay. [Related pubchem assays (depositor defined):AID493011, AID493024]; assay type: functional
Sequence of DNA dC->dU-editing enzyme APOBEC-3A (P31941 whole entry): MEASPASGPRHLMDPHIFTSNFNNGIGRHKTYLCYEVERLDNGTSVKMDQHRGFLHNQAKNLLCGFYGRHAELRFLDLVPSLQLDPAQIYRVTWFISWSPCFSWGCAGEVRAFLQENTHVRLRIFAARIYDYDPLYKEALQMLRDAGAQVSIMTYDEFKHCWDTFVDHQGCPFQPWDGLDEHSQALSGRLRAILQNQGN

COc1ccc(C(=O)c2c3ccc(C(F)(F)F)cc3[n+]([O-])n2CCCN)cc1
IC50 [1]: 9.03 µM (active)
IC50 [2]: 4.47 µM (active)

c1ccc(N2CCN(c3ncnc4c3oc3ccccc34)CC2)cc1
IC50 [3]: > 66.3 µM (inactive)
IC50 [4]: > 50 µM (inactive)
IC50 [5]: 17.7 µM (inactive)
IC50 [6]: 4.71 µM (active)
IC50 [7]: > 88.8 µM (inactive)
IC50 [8]: 12.4 µM (inactive)

Cn1c(-c2ccc3c(c2)OCO3)cnc1N
AC50 [9]: 83.7 µM (active)

C=CCSC1=C(C#N)C(c2ccccc2Cl)C(C(=O)c2cccs2)C(O)(C(F)(F)F)N1 (configuration not stated)
IC50 [3]: > 66.2 µM (inactive)
IC50 [4]: 15.2 µM (inactive)
IC50 [5]: 25 µM (inactive)
IC50 [6]: 0.405 µM (active)
IC50 [7]: 10.3 µM (inactive)
IC50 [8]: 1.62 µM (active)

O=C(Nc1ccc(F)cc1)c1nc(S(=O)(=O)Cc2ccccc2)ncc1Cl
IC50 [10]: 5.43 µM (active)
EC50 [11]: 62.8 µM (active)
AC50 [12]: > 11 µM (active)
IC50 [13]: 8.67 µM (active)
IC50 [14]: 13.4 µM (active)
IC50 [15]: 11.8 µM (active)
IC50 [16]: 2.79 µM (active)
AC50 [17]: 6.61 µM (active)
AC50 [18]: 3.38 µM (active)
AC50 [19]: 10.4 µM (active)
AC50 [20]: 1.63 µM (active)
AC50 [21]: 9.45 µM (active)
AC50 [22]: 22.6 µM (active)
AC50 [23]: > 11 µM (active)
AC50 [24]: 3.46 µM (active)
EC50 [25]: > 40 µM (inactive)

CC(C)(C)NCC(O)c1cc(Cl)c(N)c(Cl)c1 (configuration not stated) [CLENBUTEROL HYDROCHLORIDE]
IC50 [1]: 0.0288 µM (active)
IC50 [2]: 0.000897 µM (active)

Cc1ccc(N/C(S)=C(\C#N)c2nc3ccccc3s2)cc1
IC50 [26]: 1.49 µM (active)

Cc1ccc(C)c(C(=O)COC(=O)c2ccc(C)c(S(=O)(=O)N3CCOCC3)c2)c1
EC50 [27]: 0.704 µM (active)

CCC(C)(C)n1nnnc1C(c1cccnc1)N1CCN(c2cccc(C(F)(F)F)c2)CC1 (configuration not stated)
EC50 [28]: 0.101 µM (active)
EC50 [29]: > 60 µM (not active)
EC50 [30]: 16 µM (active)

CC(=O)c1c(C)n(-c2ccc(C)cc2C)c2ccc(O)cc12
IC50 [31]: > 79 µM (inactive)

CCN1C(NCCc2cccnc2)=N[C@@H](c2ccccc2)[C@H](C(=O)OC)[C@H]1C
IC50 [32]: 6.37 µM (active)
EC50 [30]: 14.6 µM (active)
IC50 [33]: 4.22 µM (active)
